# US12583868B2, “JAK inhibitors and methods for synthesizing and using thereof” (GALDERMA HOLDING SA, priority 2020, dated 2026)
# pIC50: −log10 of the molar value.
# Key:
# [1] = Human skin ex vivo: flux through skin and dermis concentration (Franz cells); format: in vitro ADME; conditions: PG/H2O cream 1 mg/mL, human skin
# hERG channel = target: T1, hERG channel (Homo sapiens, UniProt Q12809); experiment: In vitro hERG channel whole cell patch clamp; format: cell-based; conditions: CHO-K1 cells expressing hERG
# T1 construct: expressed in transfected cells; host or cells: CHO-K1
# Procedure: Blockade of the delayed rectifier potassium current (IKr) encoded by hERG gene (human ether a go go-related gene) can lead to QT interval prolongation and is therefore investigated as part of the cardiac risk assessment. This channel is critical for the repolarisation of the cardiac membrane. The effect of the compounds on IKr was assessed by whole cell patch clamp in stably transfected CHO-K1 cells expressing hERG (Human Ether-a-go-go Related Gene) channel following superfusion at different concentrations up to 30 μM.
# 3T3 murine fibroblasts = experiment: Phototoxicity (Neutral red uptake); format: cell-based; conditions: 3T3 fibroblasts, 7 J/cm2 UVA/UVB
# Procedure: Phototoxicity was evaluated in 3T3 murine fibroblasts. Cells were incubated with different concentrations of test compounds. One plate was then exposed to a dose of 7 J/cm2 (UVA/UVB mimicking usual solar exposure) whereas the other plate was kept in the dark. The treatment medium was then replaced with culture medium and after 24 h cell viability was determined by Neutral red uptake. Concentration leading to 50% decrease of viability was calculated in the absence and in the presence of irradiation. The PIF (photo irritation factor) ratio was then calculated: […]).
# IL6 = experiment: hWB assay, IL6; format: cell-based, h
# kinase panel (403) = experiment: Kinase selectivity S35 / S1 at 10 μM; format: binding
# Chrom logD pH 7.4 = format: physicochemical
# [2] = In vivo pharmacokinetic analysis in rat (iv); design: species or system male Wistar Han rat; conditions: iv 1 mg/kg
# Procedure: One male Wistar Han rat. Compound was administered intravenously to fed animal at a target dose of 1 mg/kg, dose volume: 2 mL/kg, in DMSO/hydroxypropyl-beta-cyclodextrin 20% in phosphate buffer 60 mM pH 7 (5:95). Blood samples were collected at various time points. Blood samples were then assayed using a method based upon protein precipitation with acetonitrile followed by LC/MS/MS analysis. Non-compartmental methods were used for pharmacokinetic analysis of blood concentration versus time data
# [3] = Protein binding analysis (RED), mouse plasma; format: in vitro ADME, male balb-c mice; conditions: 5 μM
# Procedure: The protein binding was assessed in plasma of Human, male balb-c mice, male Wistar Han rat, male Göttingen minipig by rapid equilibrium dialysis (RED) devices. After the plasma and buffer phosphate 50 mM pH7.4 were equilibrated at 37° C., the compound was added to plasma to reach a final concentration of 5 μM. An aliquot of plasma was withdrawn immediately. Equilibration under mild agitation was continued for 4 h. The plasma and buffer were sampled and samples were quenched with 4 volumes of acetonitrile and centrifuged. Supernatant was quantified in HPLC/MS/MS to calculate the recovery and the percentage of compound dissolved in the buffer (unbound) and bound to plasma proteins.
# T1 sequence (Q12809 whole entry): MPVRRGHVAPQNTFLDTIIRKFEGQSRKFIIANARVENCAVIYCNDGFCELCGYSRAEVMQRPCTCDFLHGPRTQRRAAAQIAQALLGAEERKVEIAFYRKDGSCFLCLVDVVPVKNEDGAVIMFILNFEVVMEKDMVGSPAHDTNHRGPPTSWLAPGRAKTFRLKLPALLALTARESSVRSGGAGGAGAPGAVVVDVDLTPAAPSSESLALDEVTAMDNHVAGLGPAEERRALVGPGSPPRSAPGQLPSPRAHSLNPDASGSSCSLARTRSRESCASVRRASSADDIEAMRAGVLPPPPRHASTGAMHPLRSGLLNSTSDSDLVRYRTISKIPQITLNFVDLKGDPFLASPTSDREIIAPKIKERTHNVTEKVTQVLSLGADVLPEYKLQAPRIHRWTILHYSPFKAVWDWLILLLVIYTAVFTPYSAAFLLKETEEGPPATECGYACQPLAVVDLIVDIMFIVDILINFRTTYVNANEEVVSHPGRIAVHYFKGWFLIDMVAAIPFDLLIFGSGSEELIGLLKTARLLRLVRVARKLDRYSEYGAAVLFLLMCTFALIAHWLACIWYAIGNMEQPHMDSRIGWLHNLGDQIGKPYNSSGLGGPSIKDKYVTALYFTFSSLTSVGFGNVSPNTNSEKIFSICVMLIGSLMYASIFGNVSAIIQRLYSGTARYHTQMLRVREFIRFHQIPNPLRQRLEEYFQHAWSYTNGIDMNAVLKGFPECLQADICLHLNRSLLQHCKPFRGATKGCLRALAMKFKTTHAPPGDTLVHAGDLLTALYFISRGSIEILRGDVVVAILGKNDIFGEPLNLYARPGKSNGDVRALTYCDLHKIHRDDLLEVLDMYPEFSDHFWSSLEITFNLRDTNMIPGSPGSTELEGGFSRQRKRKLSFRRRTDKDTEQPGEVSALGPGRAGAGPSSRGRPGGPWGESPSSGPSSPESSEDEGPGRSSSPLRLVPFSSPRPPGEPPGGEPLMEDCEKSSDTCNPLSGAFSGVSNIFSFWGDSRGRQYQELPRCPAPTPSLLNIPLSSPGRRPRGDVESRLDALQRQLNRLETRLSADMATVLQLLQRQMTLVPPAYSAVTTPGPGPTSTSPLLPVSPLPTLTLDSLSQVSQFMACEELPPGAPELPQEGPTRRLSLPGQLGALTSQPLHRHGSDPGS
smiles,measurement,setting,value
"O=S(=O)(N[C@H]1C[C@@H](N2CCOc3cnc4[nH]ccc4c32)C1)C1CN(C2CC2)C1 [Compound E, 1-Cyclopropyl-N-((cis)-3-(2,3-dihydropyrrolo[3′,2′:5,6]pyrido[3,4-b][1,4]oxazin-1(7H)-yl)cyclobutyl)azetidine-3-sulfonamide]",dermis concentration,[1],2.2 µM
same,measured flux 6-24 hr,[1],< 0.24 ng/cm^2/hr
same,pIC50,hERG channel,4.82
same,Phototox,3T3 murine fibroblasts,Neg/Neg
same,pIC50,IL6,5.80
same,Selectivity (S1): number of kinases out of panel,kinase panel (403),1/403
same,chromatographic logD,Chrom logD pH 7.4,0.8
same,iv PK rat: ER,[2],67%
same,clearance,"[2]; male, Wistar Han, whole blood, read-out: iv PK rat: Cl",52 mL/min/kg
same,Vd,"[2]; male, Wistar Han, whole blood, read-out: iv PK rat: Vd",1.8 L/kg
same,half-life,"[2]; male, Wistar Han, whole blood, read-out: iv PK rat: t½ (converted)",23.4 min
same,mFU,[3],28%
